Assay results from ChEMBL document CHEMBL3885861, “Open TG-GATES”.

Species: Rattus norvegicus
Assay: Open TG-GATES - Regimen: Daily Repeat
Type: toxicity, organism-based, Sprague-Dawley
Set-up: regimen Daily Repeat, gender Male, age 6 weeks
Conditions: in vivo, po, 0 mg/kg, route gavage, dose level Control; for APTT / Bas / Eos / Fbg / Hb / Ht / Lym / MCH / MCHC / MCV / Mono / Neu / PT / Plat / RBC / Ret / WBC: tissue Blood; for KIDNEY_L / KIDNEY_R / KIDNEY_TOTAL: tissue Kidney; for LIVER: tissue Liver; for A/G / ALP / ALT / AST / BUN / CRE / Ca / Cl / DBIL / GLC / IP / K / LDH / Na / PL / RALB / TBIL / TC / TG / TP / gamma-GTP: tissue Plasma

Compound `CN(C)[C@@H]1C(O)=C(C(N)=O)C(=O)[C@@]2(O)C(O)=C3C(=O)c4c(O)cccc4[C@@](C)(O)[C@H]3C[C@@H]12` [TETRACYCLINE] has a TERMINAL_BW (72 h, time 3 day) of 188 g, an APTT (72 h, time 3 day) of 16 s and a Bas (72 h, time 3 day) of 0%. For the same compound, the Eos (72 h, time 3 day) was 0.8%, the Fbg (72 h, time 3 day) was 221 mg/dL and the Hb (72 h, time 3 day) was 13.6 g/dL. For the same compound, the Ht (72 h, time 3 day) was 41.2%, the Lym (72 h, time 3 day) was 82.4% and the MCH (72 h, time 3 day) was 21.9 pg. For the same compound, the MCHC (72 h, time 3 day) was 33.1%, the MCV (72 h, time 3 day) was 66 fL and the Mono (72 h, time 3 day) was 6.8%. For the same compound, the Neu (72 h, time 3 day) was 10%, the PT (72 h, time 3 day) was 12.3 s and the Plat (72 h, time 3 day) was 96.9 x10_4/uL. It also gave an RBC (72 h, time 3 day) of 625 x10_4/ul, a Ret (72 h, time 3 day) of 8.2% and a WBC (72 h, time 3 day) of 111.7 x10_2/uL. It also gave a KIDNEY_L (72 h, time 3 day) of 0.9 g, a KIDNEY_R (72 h, time 3 day) of 0.9 g and a KIDNEY_TOTAL (72 h, time 3 day) of 1.7 g. The LIVER (72 h, time 3 day) was 9 g, the A/G (72 h, time 3 day) was 2.2 and the ALP (72 h, time 3 day) was 921.6 IU/L. For the same compound, the ALT (72 h, time 3 day) was 43.6 IU/L, the AST (72 h, time 3 day) was 69 IU/L and the BUN (72 h, time 3 day) was 17.6 mg/dL. It also gave a CRE (72 h, time 3 day) of 0.6 mg/dL, a Ca (72 h, time 3 day) of 11.2 mg/dL and a Cl (72 h, time 3 day) of 105.4 meq/L. It also gave a DBIL (72 h, time 3 day) of 0.008 mg/dL, a GLC (72 h, time 3 day) of 183 mg/dL and an IP (72 h, time 3 day) of 8.2 mg/dL. It also gave a K (72 h, time 3 day) of 4.7 meq/L, an LDH (72 h, time 3 day) of 99.8 IU/L and a Na (72 h, time 3 day) of 140.2 meq/L. For the same compound, the PL (72 h, time 3 day) was 150.2 mg/dL, the RALB (72 h, time 3 day) was 4 g/dL and the TBIL (72 h, time 3 day) was 0.3 mg/dL. For the same compound, the TC (72 h, time 3 day) was 83.2 mg/dL, the TG (72 h, time 3 day) was 80.2 mg/dL and the TP (72 h, time 3 day) was 5.8 g/dL. For the same compound, the gamma-GTP (72 h, time 3 day) was 1.4 IU/L, the TERMINAL_BW ([…], time 7 day) was 228 g and the TERMINAL_BW ([…], time 14 day) was 287.8 g. For the same compound, the TERMINAL_BW ([…], time 28 day) was 360.5 g, the APTT ([…], time 7 day) was 18.8 s and the Bas ([…], time 7 day) was 0%. The Eos ([…], time 7 day) was 1%, the Fbg ([…], time 7 day) was 226.7 mg/dL and the Hb ([…], time 7 day) was 13.6 g/dL. For the same compound, the Ht ([…], time 7 day) was 40.4%, the Lym ([…], time 7 day) was 80.8% and the MCH ([…], time 7 day) was 21.6 pg. For the same compound, the MCHC ([…], time 7 day) was 33.5%, the MCV ([…], time 7 day) was 64.3 fL and the Mono ([…], time 7 day) was 6.2%. For the same compound, the Neu ([…], time 7 day) was 12%, the PT ([…], time 7 day) was 12.1 s and the Plat ([…], time 7 day) was 112.5 x10_4/uL. For the same compound, the RBC ([…], time 7 day) was 629.6 x10_4/ul, the Ret ([…], time 7 day) was 6.6% and the WBC ([…], time 7 day) was 142 x10_2/uL. It also gave an APTT ([…], time 14 day) of 17 s, a Bas ([…], time 14 day) of 0% and an Eos ([…], time 14 day) of 0.6%. It also gave a Fbg ([…], time 14 day) of 238.4 mg/dL, a Hb ([…], time 14 day) of 13.9 g/dL and a Ht ([…], time 14 day) of 41.6%. The Lym ([…], time 14 day) was 80.4%, the MCH ([…], time 14 day) was 20.9 pg and the MCHC ([…], time 14 day) was 33.5%. The MCV ([…], time 14 day) was 62.3 fL, the Mono ([…], time 14 day) was 5.6% and the Neu ([…], time 14 day) was 13.6%. For the same compound, the PT ([…], time 14 day) was 11.7 s, the Plat ([…], time 14 day) was 109.2 x10_4/uL and the RBC ([…], time 14 day) was 668.4 x10_4/ul. It also gave a Ret ([…], time 14 day) of 5.7%, a WBC ([…], time 14 day) of 131 x10_2/uL and an APTT ([…], time 28 day) of 17.8 s. It also gave a Bas ([…], time 28 day) of 0%, an Eos ([…], time 28 day) of 1.4% and a Fbg ([…], time 28 day) of 235.8 mg/dL. It also gave a Hb ([…], time 28 day) of 14.8 g/dL, a Ht ([…], time 28 day) of 43.9% and a Lym ([…], time 28 day) of 83%. For the same compound, the MCH ([…], time 28 day) was 19.6 pg, the MCHC ([…], time 28 day) was 33.6% and the MCV ([…], time 28 day) was 58.3 fL. For the same compound, the Mono ([…], time 28 day) was 4.4%, the Neu ([…], time 28 day) was 11.6% and the PT ([…], time 28 day) was 11.8 s. It also gave a Plat ([…], time 28 day) of 100.7 x10_4/uL, an RBC ([…], time 28 day) of 753.4 x10_4/ul and a Ret ([…], time 28 day) of 2.9%. It also gave a WBC ([…], time 28 day) of 164.6 x10_2/uL, a KIDNEY_L ([…], time 7 day) of 1 g and a KIDNEY_R ([…], time 7 day) of 1 g. It also gave a KIDNEY_TOTAL ([…], time 7 day) of 2 g, a KIDNEY_L ([…], time 14 day) of 1.2 g and a KIDNEY_R ([…], time 14 day) of 1.2 g. For the same compound, the KIDNEY_TOTAL ([…], time 14 day) was 2.3 g, the KIDNEY_L ([…], time 28 day) was 1.3 g and the KIDNEY_R ([…], time 28 day) was 1.3 g. For the same compound, the KIDNEY_TOTAL ([…], time 28 day) was 2.7 g, the LIVER ([…], time 7 day) was 10.9 g and the LIVER ([…], time 14 day) was 13.5 g. For the same compound, the LIVER ([…], time 28 day) was 16 g, the A/G ([…], time 7 day) was 2.1 and the ALP ([…], time 7 day) was 1017 IU/L. It also gave an ALT ([…], time 7 day) of 38.2 IU/L, an AST ([…], time 7 day) of 63.2 IU/L and a BUN ([…], time 7 day) of 19 mg/dL. For the same compound, the CRE ([…], time 7 day) was 0.6 mg/dL, the Ca ([…], time 7 day) was 11 mg/dL and the Cl ([…], time 7 day) was 106.4 meq/L. For the same compound, the DBIL ([…], time 7 day) was 0.006 mg/dL, the GLC ([…], time 7 day) was 184.4 mg/dL and the IP ([…], time 7 day) was 8.1 mg/dL. For the same compound, the K ([…], time 7 day) was 6.3 meq/L, the LDH ([…], time 7 day) was 107.6 IU/L and the Na ([…], time 7 day) was 139 meq/L. For the same compound, the PL ([…], time 7 day) was 157.8 mg/dL, the RALB ([…], time 7 day) was 3.9 g/dL and the TBIL ([…], time 7 day) was 0.3 mg/dL. It also gave a TC ([…], time 7 day) of 83.4 mg/dL, a TG ([…], time 7 day) of 90.8 mg/dL and a TP ([…], time 7 day) of 5.7 g/dL. The gamma-GTP ([…], time 7 day) was 1 IU/L, the A/G ([…], time 14 day) was 1.8 and the ALP ([…], time 14 day) was 903 IU/L. The ALT ([…], time 14 day) was 30.6 IU/L, the AST ([…], time 14 day) was 67.4 IU/L and the BUN ([…], time 14 day) was 18.6 mg/dL. For the same compound, the CRE ([…], time 14 day) was 0.5 mg/dL, the Ca ([…], time 14 day) was 11.1 mg/dL and the Cl ([…], time 14 day) was 103.2 meq/L. The DBIL ([…], time 14 day) was 0.01 mg/dL, the GLC ([…], time 14 day) was 175.2 mg/dL and the IP ([…], time 14 day) was 7.9 mg/dL. The K ([…], time 14 day) was 4.7 meq/L, the LDH ([…], time 14 day) was 100.6 IU/L and the Na ([…], time 14 day) was 141 meq/L. It also gave a PL ([…], time 14 day) of 154.6 mg/dL, an RALB ([…], time 14 day) of 4 g/dL and a TBIL ([…], time 14 day) of 0.3 mg/dL. It also gave a TC ([…], time 14 day) of 72.2 mg/dL, a TG ([…], time 14 day) of 134.8 mg/dL and a TP ([…], time 14 day) of 6.2 g/dL. For the same compound, the gamma-GTP ([…], time 14 day) was 1.6 IU/L, the A/G ([…], time 28 day) was 1.7 and the ALP ([…], time 28 day) was 807.8 IU/L. It also gave an ALT ([…], time 28 day) of 31.2 IU/L, an AST ([…], time 28 day) of 58.2 IU/L and a BUN ([…], time 28 day) of 20.8 mg/dL. It also gave a CRE ([…], time 28 day) of 0.6 mg/dL, a Ca ([…], time 28 day) of 10.9 mg/dL and a Cl ([…], time 28 day) of 106.2 meq/L. The DBIL ([…], time 28 day) was 0.016 mg/dL, the GLC ([…], time 28 day) was 175.2 mg/dL and the IP ([…], time 28 day) was 7.2 mg/dL. For the same compound, the K ([…], time 28 day) was 4.6 meq/L, the LDH ([…], time 28 day) was 91.4 IU/L and the Na ([…], time 28 day) was 140 meq/L. It also gave a PL ([…], time 28 day) of 164 mg/dL, an RALB ([…], time 28 day) of 3.8 g/dL and a TBIL ([…], time 28 day) of 0.3 mg/dL. It also gave a TC ([…], time 28 day) of 78.2 mg/dL, a TG ([…], time 28 day) of 154.8 mg/dL and a TP ([…], time 28 day) of 6.1 g/dL. It also gave a gamma-GTP ([…], time 28 day) of 1 IU/L.
